Assay results taken from ChEMBL document CHEMBL4184127, “Isolation of a peptide containing d-amino acid residues that inhibits the α-helix-mediated p53-MDM2 interaction from a one-bead one-compound library” (Bioorg Med Chem Lett, 2018).

What was measured:
[1] = Metabolic stability in human serum assessed as compound remaining at 3 mM after 24 hrs by HPLC analysis; type: ADME, cell-free; conditions: read-out: Stability
[2] = Metabolic stability in human serum assessed as compound remaining at 3 mM after 72 hrs by HPLC analysis; type: ADME, cell-free; conditions: read-out: Stability

remaining at 24 h, 3000 µM [1] | remaining at 72 h, 3000 µM [2] | Structure (SMILES)
24% |  | CC(C)C[C@H](NC(=O)[C@H](CC(=O)O)NC(=O)[C@H](CCC(=O)O)NC(=O)[C@@H](NC(=O)[C@H](CC(C)C)NC(=O)[C@H](CCC(=O)O)NC(=O)C(C)(C)NC(=O)[C@H](Cc1c[nH]c2ccccc12)NC(=O)[C@@H](NC(=O)[C@@H](N)CC(=O)O)[C@@H](C)O)C(C)C)C(=O)N[C@@H](CC(N)=O)C(=O)NCC(=O)NCC(=O)NCC(=O)N[C@@H](CO)C(=O)N[C@@H](Cc1ccc(Br)cc1)C(=O)N[C@@H](CCCNC(=N)N)C(N)=O
62% | 36% | CC(C)C[C@@H](NC(=O)[C@@H](CC(=O)O)NC(=O)[C@@H](CCC(=O)O)NC(=O)[C@H](NC(=O)[C@@H](CC(C)C)NC(=O)[C@@H](CCC(=O)O)NC(=O)C(C)(C)NC(=O)[C@@H](Cc1c[nH]c2ccccc12)NC(=O)[C@H](NC(=O)[C@H](N)CC(=O)O)[C@@H](C)O)C(C)C)C(=O)N[C@H](CC(N)=O)C(=O)NCC(=O)NCC(=O)NCC(=O)N[C@@H](CO)C(=O)N[C@@H](Cc1ccc(Br)cc1)C(=O)N[C@@H](CCCNC(=N)N)C(N)=O
